4 molecules from patent publication US7259174B2, “Imidazolidinone compounds” (National Health Research Institutes, priority 2004, dated 2007) can be followed below.

Experiment [1] relates to EV71-2231. The experiment can be described thus: plaque reduction assay, EV71-2231. The experiment is classed as cell-based, Enterovirus 71 (EV71). The following applies: Enterovirus A, vero cells, plaques counted after 96 hours at 35° C. The text has this:
(§1) Enterovirus 71 (EV71) isolates were obtained from Chang Gung Children's Hospitals (Taipei, Taiwan) and National Cheng Kung University Hospital (Tainan, Taiwan). EV71-2231 and EV71-1743 were isolated from throat swabs. EV71-2086 was isolated from the skin lesion of an implicated HFMD (hand, foot, and mouth disease) patient. EV71-4643 was a clinical isolate obtained from the throat swabs of a patient with encephalitis). BrCr, the prototype of EV71, was obtained from the American Type Culture Collection (ATCC Accession No. VR 784). Vero cells (ATCC Accession No. CCL-81) were used for virus isolation and propagation.
(§2) The antiviral activity of a number of imidazolidinone compounds was determined by a standard plaque reduction assay as described in Otto et al., Antimicrobial Agents & Chemotherapy, 1985, 27:883-886.
(§3) A compound to be tested was serially diluted and included in the agar-medium overlay. Plates were incubated at 35° C. for 96 hours. The plaques were stained with crystal violet and counted.
(In general: Plaques are areas of infected cells; plaque reduction assays count them against a control.)

Experiment [2] relates to EV71-4643. The experiment can be described thus: plaque reduction assay, EV71-4643. The experiment is classed as cell-based, Enterovirus 71 (EV71). The settings on record: Enterovirus A, vero cells, plaques counted after 96 hours at 35° C.
From the text: as §1, §2, §3

Each structure is given as a SMILES string.

As usually defined, the IC50 is the midpoint of a concentration-inhibition curve. A lower IC50 goes with inhibition by little substance. Regarding `CCO/N=C/c1ccc(OCCC(C)CCN2CCN(c3ccncc3)C2=O)cc1` (centres unmarked) [Compound 5, 4-[3-methyl-5-(2-oxo-3-pyridin-4-yl-imidazolidin-1-yl)-pentyloxy]-benzaldehyde O-ethyl-oxime], the 50% inhibitory concentration (IC50) in experiment [1] and in experiment [2] was at most 38.1 nM throughout.

For the molecule `CCO/N=C/c1ccc(OCCC(C)(C)CCN2CCN(c3ccncc3)C2=O)cc1` [Compound 6, 4-[3,3-dimethyl-5-(2-oxo-3-pyridin-4-yl-imidazolidin-1-yl)-pentyloxy]-benzaldehyde O-ethyl-oxime], the half-maximal inhibitory concentration (IC50) in experiment [1] and in experiment [2] was at most 38.1 nM each time.

As for `CCO/N=C/c1ccc(OCC[C@H](C)CCN2CCN(c3ccncc3)C2=O)cc1` [Compound 7, 4-[(R)-3-methyl-5-(2-oxo-3-pyridin-4-yl-imidazolidin-1-yl)-pentyloxy]-benzaldehyde O-ethyl-oxime], the 50% inhibitory concentration (IC50) in experiment [1] and in experiment [2] was at most 38.1 nM in each case.

Turning to `CCO/N=C/c1ccc(OCC[C@@H](C)CCN2CCN(c3ccncc3)C2=O)cc1` [Compound 8, 4-[(S)-3-methyl-5-(2-oxo-3-pyridin-4-yl-imidazolidin-1-yl)-pentyloxy]-benzaldehyde O-ethyl-oxime], the IC50 in experiment [1] and in experiment [2] was at most 38.1 nM each time.
